Experimental data taken from patent US5242943A, “3-aminopropoxyphenyl derivatives, their preparation and pharmaceutical compositions containing them” (Louis; William J., priority 1984, dated 1993).

Tests used:
beta-1 adrenoceptor = target: T1, beta-1 adrenoceptor (Rattus norvegicus, UniProt P18090); experiment: Inhibition of isoproterenol induced tachycardia in the pithed rat; format: in vivo; details: read-out: Effective Dose (ID50)
T1 construct: from tissue; host or cells: heart of the pithed rat, in vivo

beta adrenoceptor = target: T2, beta adrenoceptor (Cavia porcellus, UniProt H0W3H1); experiment: Inhibition of the positive chronotropic isoproterenol effect in spontaneously beating guinea pig atrium; format: cell-based
T2 construct: in the spontaneously beating guinea pig atrium; from tissue; host or cells: guinea pig atrium

tracheal muscle = experiment: Tracheal preparations of the guinea pig, blockade of isoproterenol relaxation; format: cell-based; details: for blocking effect of the responses to isoproterenol in the trachea: at concentrations as high as 3×10^-5 mol/l; for selectivity for the cardiac beta 1 adrenoceptor: atria vs trachea, in words
[1] = tested on: cardiac contractile force; experiment: Cardiac contractile force in anaesthetised, vagotomized, spinalised cat; format: in vivo; details: in words
Procedure: In the anaesthetised, vagotomized cat spinalised at the level of second cervical vertebrae the compounds exert an increase in cardiac contractile force at a dose of from about 20 to about 2,500 ug/kg i.v. as measured with a strain gauge arch sewn into the left ventricle. The effect may also be measured as a concentration dependent stimulation of the isolated spontaneously beating guinea pig atrium.

T1 sequence (P18090 whole entry): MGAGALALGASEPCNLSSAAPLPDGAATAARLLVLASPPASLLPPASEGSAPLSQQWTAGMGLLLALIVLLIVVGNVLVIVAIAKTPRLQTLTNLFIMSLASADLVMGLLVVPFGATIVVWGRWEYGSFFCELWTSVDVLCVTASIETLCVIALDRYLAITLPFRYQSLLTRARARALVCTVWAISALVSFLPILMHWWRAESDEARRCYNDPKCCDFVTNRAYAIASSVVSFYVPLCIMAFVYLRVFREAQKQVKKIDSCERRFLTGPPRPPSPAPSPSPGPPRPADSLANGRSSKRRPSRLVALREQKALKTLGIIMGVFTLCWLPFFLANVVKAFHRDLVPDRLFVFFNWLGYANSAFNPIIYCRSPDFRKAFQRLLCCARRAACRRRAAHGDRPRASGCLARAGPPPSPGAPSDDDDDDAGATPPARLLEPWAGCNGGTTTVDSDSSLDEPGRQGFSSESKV
T2 sequence (H0W3H1 1-470): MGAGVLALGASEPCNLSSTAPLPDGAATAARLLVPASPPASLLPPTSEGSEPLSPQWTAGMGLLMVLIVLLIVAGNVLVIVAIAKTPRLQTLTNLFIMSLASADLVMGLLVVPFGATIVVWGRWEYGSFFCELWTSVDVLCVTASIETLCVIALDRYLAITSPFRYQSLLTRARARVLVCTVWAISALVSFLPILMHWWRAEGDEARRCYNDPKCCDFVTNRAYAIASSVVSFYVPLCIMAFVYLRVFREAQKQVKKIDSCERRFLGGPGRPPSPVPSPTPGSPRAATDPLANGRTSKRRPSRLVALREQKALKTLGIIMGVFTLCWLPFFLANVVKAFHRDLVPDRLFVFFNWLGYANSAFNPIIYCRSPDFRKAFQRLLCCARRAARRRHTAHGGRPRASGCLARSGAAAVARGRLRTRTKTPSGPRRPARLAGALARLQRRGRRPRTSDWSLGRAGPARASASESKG

| Compound | ED50 (beta-1 adrenoceptor) [mg/kg] | Kb (beta adrenoceptor) [µM] | selectivity (tracheal muscle; guinea pig atria vs trachea, known selective beta adrenoceptor blockers) | blocking effect of the responses to isoproterenol in the trachea (tracheal muscle) | selectivity for the cardiac beta 1 adrenoceptor (tracheal muscle) | balance between the agonistic and antagonistic activities [1] |
| --- | --- | --- | --- | --- | --- | --- |
| CC(C)NCC(O)COc1ccc(CC(N)=O)cc1 (centres unmarked) [Atenolol, reference compound] | – | – | 20 | – | – | – |
| CCCOCCOc1ccc(OC[C@@H](O)CN[C@@H](C)CNC(=O)C2CCOCC2)cc1 [Example 11, (S)-1-(4-(2-propoxyethoxy)phenoxy)-3-((S)-2-(tetrahydropyran-4-yl-carbonylamino)-1-methylethylamino)-2-propanol] | 0.02 | 0.16 | – | – | – | – |
| CCCOCCOc1ccc(OC[C@@H](O)CNC(C)CNC(=O)C2CCOCC2)cc1 (stereo partly drawn) [Example 9, (S)-1-(4-(2-propoxyethoxy)phenoxy)-3((R,S)-2-(tetrahydropyran-4-ylcarbonylamino)-1-methylethylamino)-2-propanol] | 0.003 | 0.04 | – | – | – | particularly favourable |
| CC(C)COCCOc1ccc(OCC(O)CNCCNC(=O)C2CCOCC2)cc1 (centres unmarked) [Example 4] | 0.02 | 0.05 | – | no blocking effect | virtually absolute selectivity | – |
| O=C(NCCNCC(O)COc1ccc(O)cc1F)C1CCOCC1 (centres unmarked) [Example 33, 1-(2-fluoro-4-hydroxyphenoxy)-3-[2-(tetrahydropyran-4-ylcarbonylamino)ethylamino]-2-propanol] | – | – | – | – | – | particularly favourable |
| Cc1cc(OCCOCC2CC2)ccc1OCC(O)CNCCNC(=O)C1CCOCC1 (centres unmarked) [Example 1, 1-(2-Methyl-4-(2-cyclopropylmethoxyethoxy)-phenoxy)-3-(2-(tetrahydropyran-4-yl-carbonylamino)ethylamino)-2-propanol] | 0.1 | 0.12 | – | – | – | – |
| O=C(NCCNCC(O)COc1ccc(OCCOCC2CCCC2)cc1)C1CCOCC1 (centres unmarked) [Example 5] | 0.03 | 0.03 | – | no blocking effect | virtually absolute selectivity | – |

The next lines start with results.

| ED50 (beta-1 adrenoceptor) [mg/kg] | Kb (beta adrenoceptor) [µM] | Compound | selectivity (tracheal muscle; guinea pig atria vs trachea, known selective beta adrenoceptor blockers) | blocking effect of the responses to isoproterenol in the trachea (tracheal muscle) | selectivity for the cardiac beta 1 adrenoceptor (tracheal muscle) | balance between the agonistic and antagonistic activities [1] |
| --- | --- | --- | --- | --- | --- | --- |
| 0.02 | 0.07 | CCCOCCOc1ccc(OCC(O)CNCCNC(=O)C2CCOCC2)c(C#N)c1 (centres unmarked) [Example 8] | – | – | – | – |
| 0.02 | 0.05 | CCCOCCOc1ccc(OCC(O)CNCCNC(=O)C2CCOCC2)c(F)c1 (centres unmarked) [Example 2, 1-(2-fluoro-4-(2-propoxy-ethoxy)phenoxy)-3-(2-(tetrahydropyran-4-yl-carbonylamino)ethylamino)-2-propanol] | – | no blocking effect | virtually absolute selectivity | – |
| 0.01 | 0.03 | C[C@H](CNC(=O)C1CCOCC1)NCC(O)COc1ccc(OCCOCC2CCCC2)cc1 (some centres unmarked) [Example 15] | – | no blocking effect | virtually absolute selectivity | – |
| 0.0006 | 0.03 | CCCOCCOc1ccc(OC[C@@H](O)CN[C@H](C)CNC(=O)C2CCOCC2)cc1 [Example 10, (S)-1-(4-(2-propoxyethoxy)phenoxy)-((R)-2-(tetrahydropyran-4-ylcarbonylamino)-1-methylethylamino)-2-propanol] | – | – | – | – |
| 0.015 | 0.08 | CCCOCCOc1ccc(OCC(O)CNCCNC(=O)C2CCOCC2)cc1 (centres unmarked) [Example 3] | – | no blocking effect | virtually absolute selectivity | – |
| 0.02 | 0.2 | O=C(NCCNCC(O)COc1ccc(OCCOCc2ccc(F)cc2)cc1)C1CCOCC1 (centres unmarked) [Example 7] | – | – | – | – |
| 0.03 | 0.02 | O=C(NCCNCC(O)COc1ccc(OCCOCCc2ccc(F)cc2)cc1)C1CCOCC1 (centres unmarked) [Example 6] | – | no blocking effect | virtually absolute selectivity | – |
| 0.005 | 0.07 | CC(C)COCCOc1ccc(OCC(O)CN[C@H](C)CNC(=O)C2CCOCC2)cc1 (some centres unmarked) [Example 21] | – | – | – | – |
